Data taken from US9850283B2, “Macrocyclic inhibitors of the PD-1/PD-L1 and CD80(B7-1)/PD-L1 protein/protein interactions” (BRISTOL-MYERS SQUIBB COMPANY, priority 2013, dated 2017).
Read-outs that look alike come from different tables or passages of the source. Positions of bridges follow the written chain, without caps; N, C: chain ends. Non-standard residues stand in square brackets, D forms with d. Residues, ends and D or L forms follow the SMILES beside them. Trp(5-Cl) = N[C@@H](Cc1c[nH]c2ccc(Cl)cc12)C(=O)O; Hyp = O=C(O)[C@@H]1C[C@@H](O)CN1; NMeNle = CCCC[C@H](NC)C(=O)O; NMeA = CN[C@@H](C)C(=O)O; Dab = NCC[C@H](N)C(=O)O; Dap = NC[C@H](N)C(=O)O; Sar = CNCC(=O)O

What was measured:
[1] = target: T1, Human PD-L1/PD-1 (Homo sapiens, UniProt Q9NZQ7); experiment: HTRF PD-1-Ig/PD-L1-His binding assay (human PD-L1); details: cluster symbol; read-out: HTRF IC50 cluster
T1 construct: made in house; host or cells: HEK293T
In short: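 Interaction of Fc-tagged soluble PD-1 with His-tagged soluble PD-L1 is monitored by time-resolved FRET. Donor is europium cryptate anti-Ig (1 nM final) and acceptor is APC anti-His (20 nM final). Assay buffer is dPBS with 0.1% BSA and 0.05% Tween-20.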

[2] = target: T2, LK35.2-hPD-L1 cells / PE-labeled PD-1-Ig (Homo sapiens, UniProt Q9NZQ7); experiment: LK35.2-hPD-L1 cell binding high-content screening assay; assay type: cell-based; details: cluster symbol, read-out: CBA IC50 cluster
T2 construct: expressed in transfected cells; host or cells: LK35.2 mouse B cell line
In short: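 Mouse LK35.2 B cells stably over-expressing human PD-L1, cultured overnight, treated with compound plus PE-labeled human PD-1-Ig (1 nM final) in RPMI/10% FCS for 1 h at 37 °C. After washing, bound fluorescence quantified by high-content imaging.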

[3] = cell binding assay, cell line not given
[4] = cell line of CBA not given (LK35.2-hPD-L1 or 293T-hPD-L1)

T2 sequence (Q9NZQ7 19-290): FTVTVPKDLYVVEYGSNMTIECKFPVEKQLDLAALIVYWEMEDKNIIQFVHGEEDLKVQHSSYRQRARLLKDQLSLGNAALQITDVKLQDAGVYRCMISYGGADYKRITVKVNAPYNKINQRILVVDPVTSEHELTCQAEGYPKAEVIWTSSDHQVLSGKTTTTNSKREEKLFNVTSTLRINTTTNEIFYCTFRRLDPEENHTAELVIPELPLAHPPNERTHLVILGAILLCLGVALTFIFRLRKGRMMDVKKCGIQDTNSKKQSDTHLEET
T1 sequence (Q9NZQ7 with tags, fused parts or gaps): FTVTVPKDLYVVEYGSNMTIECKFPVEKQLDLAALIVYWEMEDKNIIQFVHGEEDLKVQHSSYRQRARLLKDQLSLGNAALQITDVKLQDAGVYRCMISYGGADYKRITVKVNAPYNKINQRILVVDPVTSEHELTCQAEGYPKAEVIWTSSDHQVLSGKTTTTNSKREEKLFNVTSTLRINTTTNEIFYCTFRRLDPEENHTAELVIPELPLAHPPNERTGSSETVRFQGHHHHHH

Row | IC50 [1] [nM] | IC50 [2, 3] [nM] | IC50 [2, 4] [nM] | SMILES
1 | 0.385 to 6.74 | 0.158 to 4.71 |  | CCCC[C@H]1C(=O)N(C)[C@@H](CCCC)C(=O)N[C@@H](CCN)C(=O)N[C@H](C(=O)NCC(N)=O)CSCC(=O)N[C@@H](Cc2ccc(O)cc2)C(=O)N(C)[C@@H](C)C(=O)N[C@@H](CC(N)=O)C(=O)N2CCC[C@H]2C(=O)N[C@@H](Cc2cnc[nH]2)C(=O)N[C@@H](CCC(=O)O)C(=O)N2C[C@H](O)C[C@H]2C(=O)N[C@@H](Cc2c[nH]c3ccccc23)C(=O)N[C@@H](CO)C(=O)N[C@@H](Cc2c[nH]c3ccccc23)C(=O)N1C [Example 5031] ({CH2CO}-Y[NMeA]NPHE[Hyp]WSW[NMeNle][NMeNle][Dab]CG-NH2; thioether N-14)
2 | 0.385 to 6.74 | 4.78 to 72.9 |  | CCCC[C@H]1C(=O)N(C)[C@@H](CCCC)C(=O)N[C@@H](CO)C(=O)N[C@H](C(=O)NCC(N)=O)CSCC(=O)N[C@@H](Cc2ccc(O)cc2)C(=O)N(C)[C@@H](C)C(=O)N[C@@H](CCN)C(=O)N2CCC[C@H]2C(=O)N[C@@H](CO)C(=O)N[C@@H](CCC(=O)O)C(=O)N2C[C@H](O)C[C@H]2C(=O)N[C@@H](Cc2c[nH]c3ccccc23)C(=O)N[C@@H](CO)C(=O)N[C@@H](Cc2c[nH]c3ccccc23)C(=O)N1C [Example 5119] ({CH2CO}-Y[NMeA][Dab]PSE[Hyp]WSW[NMeNle][NMeNle]SCG-NH2; thioether N-14)
3 | 6.76 to 30.3 |  | 0.158 to 4.71 | CCCC[C@H]1C(=O)N(C)[C@@H](CCCC)C(=O)N[C@@H](CN)C(=O)N[C@H](C(=O)NCC(N)=O)CSCC(=O)N[C@@H](Cc2ccc(O)cc2)C(=O)N(C)[C@@H](C)C(=O)N[C@@H](CC(N)=O)C(=O)N2CCC[C@H]2C(=O)N[C@@H](Cc2cnc[nH]2)C(=O)N[C@@H](CC(C)C)C(=O)N2C[C@H](O)C[C@H]2C(=O)N[C@@H](Cc2c[nH]c3ccccc23)C(=O)N[C@@H](CO)C(=O)N[C@@H](Cc2c[nH]c3ccccc23)C(=O)N1C [Example 1132]
4 | > 30.5 |  | > 74.3 | CCCC[C@H]1C(=O)N(C)CC(=O)N[C@@H](CC(=O)O)C(=O)N[C@@H](C(C)C)C(=O)N(C)[C@@H](Cc2ccccc2)C(=O)N2C[C@H](O)C[C@H]2C(=O)N2CCC[C@@H]2C(=O)N[C@@H](Cc2c[nH]c3ccccc23)C(=O)N[C@@H](Cc2ccc(O)cc2)C(=O)N[C@@H](CC(C)C)C(=O)N[C@H](C(=O)NCC(N)=O)CSCC(=O)N[C@@H](Cc2ccccc2)C(=O)N(C)[C@@H](Cc2ccccc2)C(=O)N1C [Example 3177] (HELM PEPTIDE1{[O=C(C[*:3])[*:2]].F.[meF].[CCCC[C@@H](C(=O)[*:2])N(C)[*:1]].[Sar].D.V.[meF].[Hyp].[dP].W.Y.L.C.G.[am]}$PEPTIDE1,PEPTIDE1,1:R3-14:R3$$$V2.0)
5 | 6.76 to 30.3 |  | 0.158 to 4.71 | CCCC[C@H]1C(=O)N(C)[C@@H](CCCC)C(=O)N[C@@H](CCCNC(=N)N)C(=O)N[C@H](C(=O)NCC(N)=O)CSCC(=O)N[C@@H](Cc2ccc(O)cc2)C(=O)N(C)[C@@H](C)C(=O)N[C@@H](CC(N)=O)C(=O)N2CCC[C@H]2C(=O)N[C@@H](CN)C(=O)N[C@@H](CC(C)C)C(=O)N2C[C@H](O)C[C@H]2C(=O)N[C@@H](Cc2c[nH]c3ccccc23)C(=O)N[C@@H](CO)C(=O)N[C@@H](Cc2c[nH]c3ccccc23)C(=O)N1C [Example 1114] ({CH2CO}-Y[NMeA]NP[Dap]L[Hyp]WSW[NMeNle][NMeNle]RCG-NH2; thioether N-14)
6 | > 30.5 |  | > 74.3 | CCCC[C@H]1C(=O)N(C)[C@@H](CCCC)C(=O)N[C@@H](CCCNC(=N)N)C(=O)N[C@H](C(=O)NCC(N)=O)CSCC(=O)N[C@@H](Cc2ccccc2)C(=O)N(C)[C@@H](C)C(=O)N[C@@H](CC(N)=O)C(=O)N2CCC[C@H]2C(=O)N[C@@H](Cc2cnc[nH]2)C(=O)N[C@@H](CC(C)C)C(=O)N(C)CC(=O)N[C@@H](Cc2c[nH]c3ccc(Cl)cc23)C(=O)N[C@@H](CO)C(=O)N[C@@H](Cc2c[nH]c3ccccc23)C(=O)N1C [Example 1026] ({CH2CO}-F[NMeA]NPHL[Sar][Trp(5-Cl)]SW[NMeNle][NMeNle]RCG-NH2; thioether N-14)
